From PMC12186263, “Molecular Basis for Peptide Nitration by a Novel Cytochrome P450 Enzyme in RiPP Biosynthesis” (ACS Catalysis, 2025)

Assays:
RufO [1] = target: T1, RufO (Streptomyces atratus, UniProt A0A224AU14); details: recent report, ref number not given; cited from earlier work
T1 construct: made in house
T1 sequence (A0A224AU14 1-394): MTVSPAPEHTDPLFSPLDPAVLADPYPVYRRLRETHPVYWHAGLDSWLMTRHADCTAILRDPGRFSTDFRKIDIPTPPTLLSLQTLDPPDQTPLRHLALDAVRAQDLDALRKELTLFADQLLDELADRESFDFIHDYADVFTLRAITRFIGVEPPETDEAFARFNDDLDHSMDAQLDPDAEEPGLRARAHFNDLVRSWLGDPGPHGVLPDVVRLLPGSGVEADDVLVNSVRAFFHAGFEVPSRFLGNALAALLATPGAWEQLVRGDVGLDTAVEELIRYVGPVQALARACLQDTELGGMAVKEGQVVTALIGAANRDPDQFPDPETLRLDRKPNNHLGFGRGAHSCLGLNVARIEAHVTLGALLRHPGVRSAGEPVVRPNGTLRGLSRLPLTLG
Text: The integration of spectroscopic and structural characterization allows us to elucidate the molecular mechanism of substrate recognition and nitration activity in RufO. Our findings provide important insights into the catalytic process, enabling us to propose a mechanistic model for RufO-mediated peptide nitration (Figure S13). In its resting state, RufO adopts a six-coordinate, low-spin heme configuration with a water molecule as the distal ligand. While its heme environment is spectroscopically similar to that of typical CYPs, the flexibility of the B/C loop and the F and G helices contribut ...

RufO [2] = target: T1, RufO; details: spectroscopic and structural analyses; ref number not given; cited from earlier work
Text: Recent studies on a nitrating CYP have showcased collective efforts to uncover a novel enzymatic function in RiPP biosynthesis. Nitration is a biologically significant transformation that modifies the function, stability, and reactivity of proteins and other biomolecules. − While most biological nitration processes are known to proceed through less specific reactions involving peroxynitrite and other nitrative reactive species, , biocatalytic nitration is rare and underexplored. The first example was reported for TxtE in thaxtomin biosynthesis, which catalyzes the direct nitration of L-trypto ...

ferrous RufO = assay: Stopped-flow transient kinetics of O2 and •NO binding to ferrous RufO; details: for association rate constant k1: 3.3 μM ferrous RufO; for association rate constant k1 / dissociation rate constant k2 (y-intercept): pH 8.0, linear fit
Protocol: 5 Transient kinetics of ferrous RufO binding to O2 and ^•NO. Spectral changes following the rapid mixing of 3.3 μM ferrous RufO bound to MRYLH with (A) 18 μM O2 and (C) 70 μM ^•NO over 0.2 s. The black-to-red spectral transitions represent the formation of (A) a ferric-superoxo intermediate and (C) a ferrous-nitrosyl complex. Insets show the time-dependent absorbance changes at 438 nm (the most pronounced shift), fitted using single exponential equations to determine rate constants (red trace). Dependence of rate constant as a function of gas concentration on (B) O2 and (D) ^•NO binding to ferrous RufO alone (blue) and peptide-bound RufO (red). Second-order rate constants were determined through linear fitting. TEXT PRINTED IN THE PICTURE: (A) + O2: kobs = 74.3 s^-1 | (B) RufO alone: k1 = 3.55 μM^-1 s^-1 | (B) peptide-bound: k1 = 3.83 μM^-1 s^-1 | (C) + •NO: kobs = 107.4 s^-1 | (D) RufO alone: k1 = 4.12 μM^-1 s^-1 | (D) peptide-bound: k1 = 2.35 μM^-1 s^-1
Stopped-flow spectroscopic data were collected using an Applied Photophysics SX20 stopped-flow system equipped with a photodiode array detector. The system was maintained in an anaerobic chamber (O2 < 1 ppm) and all sample preparation was done anaerobically. Measurements were performed at 4 °C. All samples were prepared in a buffer containing 50 mM Tris-HCl and 100 mM NaCl, pH 8.0. RufO was prereduced with a minimal amount of sodium dithionite. The final mixed concentrations of RufO and MRYLH (where applicable) were 3.3 and 24 μM, respectively. Solutions of varying O2 concentrations were prepared by diluting air-saturated buffer with anaerobic buffer. The concentrations of O2 in the air-saturated buffer were measured with an Oxygraph+ oxygen electrode (Hansatech). To generate ^•NO-containing solutions, 0.5 mM DEA NONOate (≥98%, Cayman Chemical) was incubated in anaerobic buffer for 4 h to ensure complete ^•NO release. The ^•NO concentrations were quantified based on a hemoglobin assay, and further dilutions were made with anaerobic buffer immediately prior to mixing. Experimental data were analyzed by the ProK software package from Applied Photophysics. The second-order rate constants were obtained from linear fitting, with the resulting equations: y = 3.55x + 54.4 for the mixing of RufO with O2, y = 3.83x + 6.5 for the ES complex with O2, y = 4.12x −158.0 for RufO with ^•NO, and y = 2.35x – 58.9 for the ES complex with ^•NO.
Figure S9. Transient kinetics of ferrous RufO alone binding to O2 and •NO Spectral changes following the rapid mixing of 3.3 μM ferrous RufO with (A) 18 μM O 2 and […] superoxo intermediate and (B) a ferrous-nitrosyl complex. Insets show the time-dependent absorbance changes at 438 nm (the most pronounced shift), fitted using first-order exponential equations to determine rate constants (red trace).
(1 picture or pasted object on this page, not shown here)

RufO [3] = target: T1, RufO; assay: LC-MS of single-turnover RufO reaction with sequential O2 and •NO addition; type: biochemical; details: 100 μM pre-reduced RufO, 150 μM MRYLH, 150 μM O2 30 s then 150 μM •NO 30 s, 50 mM ammonium acetate pH 7.5
TxtE = target: T2, TxtE (Streptomyces scabiei, UniProt C9ZDC6); details: Trp-bound TxtE; reported, ref number not given; cited from earlier work
T2 sequence (C9ZDC6 1-406): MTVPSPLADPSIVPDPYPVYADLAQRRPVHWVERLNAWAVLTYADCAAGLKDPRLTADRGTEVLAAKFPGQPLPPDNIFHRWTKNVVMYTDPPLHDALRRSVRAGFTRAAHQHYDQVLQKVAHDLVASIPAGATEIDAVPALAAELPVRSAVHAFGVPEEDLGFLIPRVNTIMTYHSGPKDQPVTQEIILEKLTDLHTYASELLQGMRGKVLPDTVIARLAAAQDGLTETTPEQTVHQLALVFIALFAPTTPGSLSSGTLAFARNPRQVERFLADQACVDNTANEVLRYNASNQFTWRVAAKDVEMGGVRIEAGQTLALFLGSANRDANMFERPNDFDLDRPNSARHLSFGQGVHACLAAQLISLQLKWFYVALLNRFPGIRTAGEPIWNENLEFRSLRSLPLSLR

[4] = peptide-bound ferrous RufO + O2, 4 °C, pH 8.0

Compound: MRFLH
- nitration by RufO, in words (RufO [1]): RufO cannot nitrate

Compound: N[C@@H](Cc1ccc(O)cc1)C(=O)O [Tyr, L-tyrosine]
- binding to RufO, in words (RufO [2]): unable to bind

Compound: O=O [O2]
- kobs (ferrous RufO; MRYLH-bound ferrous RufO 3.3 μM, 18 μM O2, 438 nm, single exponential, 4 °C): 74.3 s⁻¹
- association rate constant k1 (ferrous RufO; MRYLH-bound, 24 μM MRYLH, 4 °C): 3.83 μM^–1 s^–1
- association rate constant k1 (ferrous RufO; RufO alone, 4 °C): 3.55 μM^–1 s^–1
- dissociation rate constant k2 (y-intercept) (ferrous RufO; RufO alone, 4 °C): 54.4 s^–1
- O2 binding faster than •NO (times) (ferrous RufO; in the presence of the peptide, ratio of k1): 1.6 times
- dissociation rate constant k2 (y-intercept) (ferrous RufO; peptide-bound RufO, 4 °C): 6.5 s^–1
- ferric-superoxo intermediate stable for up to (ferrous RufO; [4]): up to 100 s
- time of peak of ferric-superoxo intermediate (ferrous RufO; [4]): approximately 0.05 s
- product yield, O2-first vs reverse order (RufO [3]): approximately double the product yield
- k1 of O2 binding (TxtE): 4.43 μM^–1 s^–1
